The target of test [1] is T1, human CB2 receptor (Homo sapiens, UniProt P34972).
T1 construct: expressed in transfected cells; host or cells: human embryonic kidney (HEK) cells, Semliki Forest Virus system, membrane preparations
In words: CB2 receptor affinity ([3H]-CP-55,940 displacement, HEK cell membranes). In kind it is binding. The settings on record: displacement of radioligand [3H]-CP-55,940. As to the method:
The affinity of the compounds of the invention for cannabinoid CB2 receptors was determined using membrane preparations of human embryonic kidney (HEK) cells in which the human CB2 receptor is transiently transfected using a Semliki Forest Virus system in conjunction with [^3H]-CP-55,940 as radioligand. After incubation of freshly prepared cell membrane preparation with the [^3H]-ligand, with or without addition of compounds of the invention, separation of bound and free ligand was performed by filtration over glass fiber filters. Radioactivity on the filter was measured by scintillation counting.
(§1) The ability of the compounds to displace the radioligand [^3H]-CP-55,940 was measured at a concentration of 10 μM and values provided as [% inhibition @ 10 μM] both for the CB1 and CB2 receptor assay, The lower % inhibition is, the lower the likelihood of side effects based on CB1 or CB2 receptor inhibition is.

Test [2] relates to ABCA1 protein. In words: Detection of upregulation of ABCA1 protein in cells (ApoA-I binding, high content image analysis). Conditions: THP-1 macrophage cells; for EC50: ABCA1 protein increasing efficacy; for % increase of ABCA1 at 3 μM: 24 hrs with compound. Format: cell-based. The method, then:
The ability of compounds of the invention to increase the level of ABCA1 protein is determined in replicate cultures of THP-1 macrophage cells in 96-well microplates. Cells are plated at an initial density of 100,000 cells/well in 100 μl medium and differentiated to adherent macrophages with the addition of PMA (100 nM) for 68 hrs in 10% fetal bovine serum, 3 μl/L of b-mercaptoethanol, RPMI-1640 medium. Then, cells are incubated with RPMI-1640 medium containing 1% FCS, 25 μg/ml acetylated LDL, for 24 hours at 37°. Following incubation with acetylated LDL, cells are washed twice with 50 μl PBS and incubated with 100 μl of RPMI-1640 medium containing the compound of interest solubilized in DMSO for an additional 24 hrs. The final DMSO concentration in presence of cells is maintained at 0.5%. ApoA-I binding assay using High Content Image Analysis is initiated by replacing with fresh medium, RPMI without Phenol Red, 0.2% BSA containing AlexaFluor®647 labeled ApoA-I for 2 h/37° C./5% CO2. Then, cells are fixed with 4% Formaldehyde inPBS (15 min, RT). Following Nuclei are stained with Hoechst solution (3 μM PBS) and Cytoplasm with Cell Mask Blue (2 μg/ml PBS), 15 min, RT. Finally the stained cells are fixed with a second round of formaldehyde treatment. Fixed stained cells are washed and kept in PBS at 4° C. and can be read immediately until one month after preparation.
The Alexa Fluor 647-labeled Apolipoprotein A-I (20 nM) was prepared as follows: Human recombinant Apolipoprotein A-I (ApoA-I) was exchanged to a buffer of 0.02 M NaHCO3 at pH 8.2 on an NAP desalting column (GE Healthcare) and brought to a concentration to 40 μM (1.13 mg/ml) by adjustment with the same buffer. The ApoA-I was fluorescently labeled by incubation with Alexa Fluor carboxylic acid succimidyl ester. (Alexa Fluor 647, Invitrogen A-20006) at a 2:1 molar ratio (Alexa to ApoA-I) for 1 h under shaking at RT. The remaining unconjugated label was removed by buffer exchange to 0.02M NaHCO3 at pH 8.2.
Imaging and data collection were performed on an OPERA confocal microplate imaging reader using a 20× water immersion objective and UV360 or 405 laser to identify the cell nuclei and a 635 laser to identify the fluorescent ApoA-I. Eight fields of view are captured per well. Image capture and analysis was performed with the Acapella software. Background fluorescence detected in control wells without ApoA-I was subtracted.
Using XLfit3 program (ID Business Solutions Ltd. UK), the model 205 for Dose Response One Site is used to calculate the EC50 values. The compounds of the present invention increase the level of ABCA1 protein by more than 45% at a concentration of 3 μM. […] Even more preferably, the compounds of the present invention have EC50 values in a range of 0.1 μM to 3 μM.

Test [3] has as its target T2, human CB1 receptor (Homo sapiens, UniProt P21554).
T2 construct: expressed in transfected cells; host or cells: human embryonic kidney (HEK) cells, Semliki Forest Virus system, membrane preparations
Briefly: CB1 receptor affinity ([3H]-CP-55,940 displacement, HEK cell membranes). Format: binding. The settings on record: displacement of radioligand [3H]-CP-55,940. As to the method: The affinity of the compounds of the invention for cannabinoid receptors was determined using membrane preparations of human embryonic kidney (HEK) cells in which the human CB1 receptor is transiently transfected using a Semliki Forest Virus system in conjunction with [3H]-CP-55,940 as radioligand. After incubation of freshly prepared cell membrane preparation with the [^3H]-ligand, with or without addition of compounds of the invention, separation of bound and free ligand was performed by filtration over glass fiber filters. Radioactivity on the filter was measured by scintillation counting.
as §1

T1 sequence (P34972 whole entry): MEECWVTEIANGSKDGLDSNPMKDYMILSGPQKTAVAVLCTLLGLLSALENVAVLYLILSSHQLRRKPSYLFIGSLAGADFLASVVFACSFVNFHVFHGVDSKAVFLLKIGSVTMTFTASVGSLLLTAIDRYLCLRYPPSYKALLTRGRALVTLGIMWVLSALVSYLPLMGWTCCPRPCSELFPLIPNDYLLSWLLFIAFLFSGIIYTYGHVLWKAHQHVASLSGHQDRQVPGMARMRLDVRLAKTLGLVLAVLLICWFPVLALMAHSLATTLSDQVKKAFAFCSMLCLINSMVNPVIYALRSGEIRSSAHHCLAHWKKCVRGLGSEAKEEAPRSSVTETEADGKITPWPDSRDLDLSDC
T2 sequence (P21554 whole entry): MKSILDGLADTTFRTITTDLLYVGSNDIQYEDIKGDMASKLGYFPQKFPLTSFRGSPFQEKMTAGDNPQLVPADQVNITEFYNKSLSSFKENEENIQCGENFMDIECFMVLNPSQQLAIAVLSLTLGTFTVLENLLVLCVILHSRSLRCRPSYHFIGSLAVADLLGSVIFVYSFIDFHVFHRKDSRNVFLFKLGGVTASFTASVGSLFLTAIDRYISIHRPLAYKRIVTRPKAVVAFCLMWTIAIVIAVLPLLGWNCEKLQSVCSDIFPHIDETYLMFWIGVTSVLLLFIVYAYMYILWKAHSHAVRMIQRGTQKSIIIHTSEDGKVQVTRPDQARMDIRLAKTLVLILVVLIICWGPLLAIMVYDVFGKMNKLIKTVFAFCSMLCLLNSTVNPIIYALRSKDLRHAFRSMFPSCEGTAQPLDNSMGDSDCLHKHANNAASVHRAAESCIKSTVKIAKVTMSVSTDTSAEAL

Take `Cc1cccnc1C(=O)Nc1cnc(OCC(F)(F)F)c(-c2ccc(Cl)cc2)c1` [Example 36, 3-methyl-2-pyridinecarboxylic acid[5-(4-chloro-phenyl)-6-(2,2,2-trifluoro-ethoxy)-pyridin-3-yl]-amide]: the results for the inhibition at 10 µM in test [1] and in test [3] were 2% and 18%, respectively. Besides, the response in test [2] was half-maximal at 510 nM (EC50).
Turning to `Cc1ocnc1C(=O)Nc1cnc(OCC(F)(F)F)c(-c2ccc(Cl)cc2)c1` [Example 37, 5-methyl-4-oxazolecarboxylic acid[5-(4-chloro-phenyl)-6-(2,2,2-trifluoro-ethoxy)-pyridin-3-yl]-amide], the inhibition – broadly, the change of the read-out against control, counted positive when it falls – at 10 µM was found to be 8% in test [1] and 27% in test [3]. Moreover, the “% increase of ABCA1 at 3 μM” value in test [2] is listed as over 45% @ 3 μM.
As to `Cc1ccc(-c2cc(NC(=O)c3cccnc3)cnc2OCC(F)(F)F)cc1C` [Example 38, N-(5-(3,4-dimethylphenyl)-6-(2,2,2-trifluoroethoxy)pyridin-3-yl)nicotinamide], the results for the inhibition at 10 µM in test [1] and in test [3] were 15% and 12%, respectively. In addition, in test [2], the EC50 (usually the concentration needed to bring the measured effect to its halfway point) was found to be 2910 nM.
The matching figures for `Cc1cc(-c2cc(NC(=O)c3cccnc3)cnc2OCC(F)(F)F)ccc1Cl` [Example 39, N-(5-(4-chloro-3-methylphenyl)-6-(2,2,2-trifluoroethoxy)pyridin-3-yl)nicotin-amide]: 16%, 19% and 2230 nM.
Regarding `O=C(Nc1cnc(OCC(F)(F)F)c(-c2ccc(Cl)cc2)c1)c1ccc(O)cn1` [Example 40, 5-hydroxy-pyridine-2-carboxylic acid[5-(4-chloro-phenyl)-6-(2,2,2-trifluoro-ethoxy)-pyridin-3-yl]-amide], the inhibition at 10 µM was -5% in test [1] and 19% in test [3]. In test [2], the concentration for a half-maximal effect (EC50) amounted to 3310 nM.
In the case of `Cc1cncc(C(=O)Nc2cnc(OCC(F)(F)F)c(-c3ccc(Cl)cc3)c2)c1` [Example 41, N-(5-(4-chlorophenyl)-6-(2,2,2-trifluoroethoxy)pyridin-3-yl)-5-methylnicotin-amide], the inhibition at 10 µM is 8% in test [1] and 31% in test [3]. Moreover, the “% increase of ABCA1 at 3 μM” value in test [2] is recorded as over 45% @ 3 μM.
Consider `C[C@H](Oc1ncc(NC(=O)c2cccnn2)cc1-c1ccc(Cl)cc1)C(F)(F)F` [Example 42, (S)-N-(5-(4-chlorophenyl)-6-(1,1,1-trifluoropropan-2-yloxy)pyridin-3-yl)pyridazine-3-carboxamide], for which the figures for the inhibition at 10 µM in test [1] and in test [3] were 6% and 23%, respectively. In addition, the concentration for a half-maximal effect (EC50) in test [2] came to 8540 nM.
As for `C[C@H](Oc1ncc(NC(=O)c2cccnc2)cc1-c1ccc(Cl)cc1)C(F)(F)F` [Example 43, (S)-N-(5-(4-chlorophenyl)-6-(1,1,1-trifluoropropan-2-yloxy)pyridin-3-yl)nicotinamide], the figures for the inhibition at 10 µM in test [1] and in test [3] were 6% and 31%, respectively. Further, the response in test [2] was half-maximal at 5950 nM (EC50).
The matching figures for `O=C(Nc1cnc(OCC(F)(F)F)c(-c2ccc(Cl)c(F)c2)c1)c1cccnc1` [Example 44, N-(5-(4-chloro-3-fluorophenyl)-6-(2,2,2-trifluoroethoxy)pyridin-3-yl)nicotin-amide]: 14%, 15% and 1260 nM.
The matching figures for `O=C(Nc1cnc(OCC(F)(F)F)c(-c2ccc(F)c(Cl)c2)c1)c1cccnc1` [Example 45, N-(5-(3-chloro-4-fluorophenyl)-6-(2,2,2-trifluoroethoxy)pyridin-3-yl)nicotin-amide]: 13%, 11% and 1030 nM.
For `O=C(Nc1cnc(OCC(F)(F)F)c(-c2ccc(Cl)cc2F)c1)c1cccnc1` [Example 46, N-(5-(4-chloro-2-fluorophenyl)-6-(2,2,2-trifluoroethoxy)pyridin-3-yl)nicotin-amide], the inhibition at 10 µM was -1% in test [1] and 40% in test [3]. Besides, the “% increase of ABCA1 at 3 μM” value in test [2] is given as over 45% @ 3 μM.
For `CCc1ccc(-c2cc(NC(=O)c3cccnc3)cnc2OCC(F)(F)F)cc1` [Example 47, N-(5-(4-ethylphenyl)-6-(2,2,2-trifluoroethoxy)pyridin-3-yl)nicotinamide], the inhibition at 10 µM in test [1] is 5%; in test [3] it was 34%. This compound gave a concentration giving a half-maximal response (EC50) in test [2] of 1360 nM.
As to `C[C@H](Oc1ncc(NC(=O)c2cccnc2)nc1-c1ccc(Cl)cc1)C(F)(F)F` [Example 48, (S)-N-(6-(4-chlorophenyl)-5-(1,1,1-trifluoropropan-2-yloxy)pyrazin-2-yl)nicotinamide], the values for the inhibition at 10 µM in test [1] and in test [3] were -2% and 40%, respectively. In addition, the “% increase of ABCA1 at 3 μM” value in test [2] is over 45% @ 3 μM.
In the case of `O=C(Nc1cnc(OCC(F)(F)F)c(-c2ccc(Cl)cc2)n1)c1cccnc1` [Example 49, N-(6-(4-chlorophenyl)-5-(2,2,2-trifluoroethoxy)pyrazin-2-yl)nicotinamide], the inhibition at 10 µM in test [1] was -3%; in test [3] it was 39%. For the same compound, it took 300 nM to reach a half-maximal effect in test [2] (EC50).
On the same counts, the results for `O=C(Nc1cnc(OC2CCC2)c(-c2ccc(Cl)cc2)n1)c1cccnc1` [Example 50, N-(6-(4-chlorophenyl)-5-cyclobutoxypyrazin-2-yl)nicotinamide] are -1%, 39% and 1500 nM.
With `O=C(Nc1cnc(OC2CCC2)c(-c2ccc(Cl)cc2)n1)c1cncnc1` [Example 51, N-(6-(4-chlorophenyl)-5-cyclobutoxypyrazin-2-yl)pyrimidine-5-carboxamide], the figures for the inhibition at 10 µM in test [1] and in test [3] were 6% and 48%, respectively. For the same compound, the “% increase of ABCA1 at 3 μM” value in test [2] is over 45% @ 3 μM.
The matching figures for `Cc1cc(-c2cc(NC(=O)c3cncnc3)cnc2OCC(F)(F)F)ccc1Cl` [Example 52, N-(5-(4-chloro-3-methylphenyl)-6-(2,2,2-trifluoroethoxy)pyridin-3-yl)pyrimidine-5-carboxamide]: 6%, 34% and over 45% @ 3 μM.
Take `O=C(Nc1cnc(OCC(F)(F)F)c(-c2ccc(Cl)c(F)c2)c1)c1cncnc1` [Example 53, N-(5-(4-chloro-3-fluorophenyl)-6-(2,2,2-trifluoroethoxy)pyridin-3-yl)pyrimidine-5-carboxamide]: the inhibition at 10 µM is 0% in test [1] and 21% in test [3]. In addition, the “% increase of ABCA1 at 3 μM” value in test [2] is on record as over 45% @ 3 μM.
On the same counts, the results for `O=C(Nc1cnc(OCC(F)(F)F)c(-c2ccc(F)c(Cl)c2)c1)c1cncnc1` [Example 54, N-(5-(3-chloro-4-fluorophenyl)-6-(2,2,2-trifluoroethoxy)pyridin-3-yl)pyrimidine-5-carboxamide] are 10%, 21% and over 45% @ 3 μM.

The record behind these values is patent US8410107B2, “N-pyridin-3-yl or N-pyrazin-2-yl carboxamides” (Hoffmann-La Roche Inc., priority 2010, dated 2013).
